# The source made the active and inactive calls.
# Experiments:
# cells [1] = type: functional, cell-based
# cells [2] = type: functional, cell-based; remark: listed apart in the source
# [3] = biological target: Photoreceptor-specific nuclear receptor (Homo sapiens, UniProt Q9Y5X4); assay: ligands suppressing NR2E3 nuclear receptor activity – biochemical, TR-FRET, dose response (AID 463256); type: functional
# [4] = biological target: Peroxisome proliferator-activated receptor gamma/Nuclear receptor corepressor 2 (Homo sapiens, UniProt P37231+Q9Y618); assay: Counterscreen for NR2E3 inverse agonists: TR-FRET-based biochemical high throughput dose response assay to identify inverse agonists of the interaction between peroxisome proliferator-activated receptor gamma (PPARg) and nuclear receptor co-repressor 2 (NCOR2).; type: functional
# [5] = A cytotoxicity screen of small molecule inhibitors of the PhoP region in Salmonella typhi identified in the primary screen. [Related pubchem assays: 1850, 1864, 1985 ]; type: functional
# H4 = assay: Luminescence Cell-Based Dose Response HTS to Identify Activators of 5'UTR Stem-Loop Driven Prion Protein mRNA Translation in H4 Neuroglioblastoma Cells. [Related pubchem assays: 1829 (Project Summary), 1814 (Primary HTS)]; type: functional; settings: Homo sapiens
# [6] = Luminescence Cell-Based Dose Response HTS to Identify Activators of Luciferase Translation or Activity in H4 […] Cells. [Related pubchem assays: 1829 (Project Summary), 1814 (Primary HTS)]; type: functional
# [7] = Luminescence Cell-Based Dose Response to Identify Activators of 5'UTR Stem-Loop Driven Prion Protein mRNA Translation in H4-C Neuroglioblastoma Cells. [Related pubchem assays: 1829 (Project Summary), 1814 (Primary HTS)]; type: functional
# [8] = Luminescence Cell-Based Dose Confirmation to Identify Activators of 5'UTR Stem-Loop Driven Alpha-Synuclein mRNA Translation in H4 Neuroglioblastoma Cells. [Related pubchem assays: 1829 (Project Summary), 1814 (Primary HTS)]; type: functional
# [9] = Luminescence Cell-Based Dose Response to Identify Activators of Luciferase Translation or Activity in H4-C Neuroglioblastoma Cells. [Related pubchem assays: 1829 (Project Summary), 1814 (Primary HTS)]; type: functional
# HeLa = assay: viability loss in HeLa cells – cell-based, ATP luminescence, cherry-pick samples, cytotoxicity control, dose response (AID 687004); type: functional; settings: Homo sapiens
# Melanocortin receptor 4 = Melanocortin receptor 4 (Homo sapiens, UniProt P32245); assay: inhibitors of MC4R cAMP signaling – cell-based, TR-FRET, biased antagonists, dose response (AID 602298); type: functional;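 further: antagonist potency against agonist-stimulated cAMP production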
# [10] = cAMP pathway inhibition in counterscreen cell line – TR-FRET cAMP detection, counter-screen for MC4R biased antagonist project, dose response (AID 602305); type: functional, cell-based;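 further: U2OS cells stimulated with forskolin near its EC80 as the cAMP inducer; potency is for inhibition of forskolin-stimulated cAMP signaling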
# [11] = biological target: T1, Apoptotic protease-activating factor 1 (Homo sapiens, UniProt O14727); type: functional
# T1 sequence (O14727 whole entry): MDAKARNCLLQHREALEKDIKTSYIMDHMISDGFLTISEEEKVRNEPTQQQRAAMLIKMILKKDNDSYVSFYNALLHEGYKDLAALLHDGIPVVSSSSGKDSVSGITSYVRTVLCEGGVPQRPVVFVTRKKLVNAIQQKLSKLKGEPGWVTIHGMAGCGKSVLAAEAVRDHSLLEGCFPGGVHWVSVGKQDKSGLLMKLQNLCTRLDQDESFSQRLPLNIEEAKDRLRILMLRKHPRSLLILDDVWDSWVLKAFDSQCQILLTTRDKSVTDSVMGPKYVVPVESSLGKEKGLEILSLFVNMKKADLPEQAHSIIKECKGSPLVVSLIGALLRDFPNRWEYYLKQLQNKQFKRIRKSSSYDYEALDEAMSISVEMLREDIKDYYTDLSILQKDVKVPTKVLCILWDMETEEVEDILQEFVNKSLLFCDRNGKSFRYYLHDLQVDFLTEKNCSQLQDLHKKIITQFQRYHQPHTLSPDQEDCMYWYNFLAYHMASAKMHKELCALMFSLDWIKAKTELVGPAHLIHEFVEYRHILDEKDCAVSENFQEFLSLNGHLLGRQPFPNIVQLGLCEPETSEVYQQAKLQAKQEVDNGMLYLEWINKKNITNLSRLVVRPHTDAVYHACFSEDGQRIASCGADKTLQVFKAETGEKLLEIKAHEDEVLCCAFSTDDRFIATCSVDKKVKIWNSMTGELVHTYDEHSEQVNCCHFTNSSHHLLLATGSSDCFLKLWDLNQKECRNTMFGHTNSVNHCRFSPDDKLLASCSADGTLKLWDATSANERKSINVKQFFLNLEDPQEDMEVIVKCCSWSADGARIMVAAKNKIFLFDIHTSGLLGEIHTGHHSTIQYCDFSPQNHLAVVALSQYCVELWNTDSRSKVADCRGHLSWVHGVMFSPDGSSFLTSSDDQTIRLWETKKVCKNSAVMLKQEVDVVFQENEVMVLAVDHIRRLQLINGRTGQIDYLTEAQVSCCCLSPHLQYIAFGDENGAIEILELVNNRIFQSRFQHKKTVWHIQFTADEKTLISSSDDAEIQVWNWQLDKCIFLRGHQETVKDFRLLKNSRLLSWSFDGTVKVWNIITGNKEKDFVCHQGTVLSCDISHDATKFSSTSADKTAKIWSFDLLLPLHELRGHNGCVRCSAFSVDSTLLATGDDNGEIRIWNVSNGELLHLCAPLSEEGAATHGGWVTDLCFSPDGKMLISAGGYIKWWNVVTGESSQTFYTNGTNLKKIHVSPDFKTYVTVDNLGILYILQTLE
# Beta-galactosidase = Beta-galactosidase (Escherichia coli, UniProt Q8VNN2); assay: detection-enzyme interference by beta-gal modulators – biochemical, E. coli enzyme, set 3, artefact control for CCR6 antagonist project, dose response (AID 504712); type: functional
# [12] = biological target: FAD-linked sulfhydryl oxidase ALR (Homo sapiens, UniProt P55789); assay: ALR-catalysed DTT oxidation blockers – biochemical, H2O2 detection, luminescence, cherry-pick, dose response (AID 493248)
# Trypsin = Trypsin (Sus scrofa, UniProt P00761); assay: trypsin protease activity blockade – biochemical, quenched peptide fluorescence, cherry-pick, selectivity assay for Rce1 protease inhibitor project, dose response (AID 488789)
# [13] = biological target: Induced myeloid leukemia cell differentiation protein Mcl-1 (Homo sapiens, UniProt Q07820); type: functional
# [14] = NIH3T3 cell viability loss – ATP luminescence, mouse fibroblasts, counter-screen, dose response (AID 2010); type: functional, cell-based;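 further: cells exposed to compound for about 90 hours before reading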
# Cytochrome P450 2C19 = Cytochrome P450 2C19 (Homo sapiens, UniProt P33261); assay: Cytochrome panel assay with activity outcomes. Panel member name: p450-cyp2c19 Compounds with AC50 equal or less than 10 uM are considered active; type: functional; settings: read-out: AC50
# [15] = Trypanosoma cruzi growth suppression in host cells – NIH3T3 host cells, beta-gal luminescence, confirmation (AID 2044); type: functional, cell-based;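 further: intracellular parasites grown in NIH/3T3 mouse fibroblasts as host cells; luminescent beta-galactosidase reporter signal from transgenic T. cruzi replicating inside host cells; inhibitors lower the luminescence signal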
# [16] = viability loss in THP-1 monocytes – THP-1 cells, cytotoxicity control for Vif-APOBEC3G degradation inhibitor project, dose response (AID 1117359); type: functional; settings: THP-1
# [17] = biological target: T2, Microphthalmia-associated transcription factor (Homo sapiens, UniProt O75030); assay: reducers of TRPM1 reporter luminescence, concentration series – cell-based, SK-MEL-5, cherry-picked, set 3, MITF inhibitor project, dose response (AID 493073); type: functional;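 further: SK-MEL-5 melanoma cells with luciferase driven by the MITF target TRPM1 promoter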
# T2 sequence (O75030 whole entry): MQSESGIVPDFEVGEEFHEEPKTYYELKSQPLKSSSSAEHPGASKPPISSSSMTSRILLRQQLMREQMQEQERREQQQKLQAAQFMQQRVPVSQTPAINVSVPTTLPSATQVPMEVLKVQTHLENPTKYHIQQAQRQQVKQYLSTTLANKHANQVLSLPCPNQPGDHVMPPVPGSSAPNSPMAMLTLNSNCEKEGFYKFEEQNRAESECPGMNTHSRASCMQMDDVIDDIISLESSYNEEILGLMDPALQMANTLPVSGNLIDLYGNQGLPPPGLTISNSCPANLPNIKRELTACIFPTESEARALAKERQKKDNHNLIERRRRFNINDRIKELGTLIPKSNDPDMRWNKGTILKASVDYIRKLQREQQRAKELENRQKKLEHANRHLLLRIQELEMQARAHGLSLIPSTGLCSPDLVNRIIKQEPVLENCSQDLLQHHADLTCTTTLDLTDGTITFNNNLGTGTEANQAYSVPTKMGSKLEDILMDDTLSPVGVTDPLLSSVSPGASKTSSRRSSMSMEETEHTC
# Genome polyprotein = Genome polyprotein (dengue virus type 2, UniProt P29990); assay: flavivirus cap methylation enzyme inhibition – biochemical, confirmation dose response, primary screen (AID 588689); type: functional
# Sequence of Photoreceptor-specific nuclear receptor (Q9Y5X4 whole entry): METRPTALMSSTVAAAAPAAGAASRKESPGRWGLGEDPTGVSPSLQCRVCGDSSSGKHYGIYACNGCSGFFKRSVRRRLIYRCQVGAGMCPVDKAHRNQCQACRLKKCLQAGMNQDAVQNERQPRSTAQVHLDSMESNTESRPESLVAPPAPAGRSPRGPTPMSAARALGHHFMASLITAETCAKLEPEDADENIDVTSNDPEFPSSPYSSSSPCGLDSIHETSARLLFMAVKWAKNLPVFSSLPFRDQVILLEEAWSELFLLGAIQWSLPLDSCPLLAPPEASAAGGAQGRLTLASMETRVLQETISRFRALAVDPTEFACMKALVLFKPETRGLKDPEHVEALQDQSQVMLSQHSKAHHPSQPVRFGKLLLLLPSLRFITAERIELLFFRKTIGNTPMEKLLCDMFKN
# Sequence of Melanocortin receptor 4 (P32245 whole entry): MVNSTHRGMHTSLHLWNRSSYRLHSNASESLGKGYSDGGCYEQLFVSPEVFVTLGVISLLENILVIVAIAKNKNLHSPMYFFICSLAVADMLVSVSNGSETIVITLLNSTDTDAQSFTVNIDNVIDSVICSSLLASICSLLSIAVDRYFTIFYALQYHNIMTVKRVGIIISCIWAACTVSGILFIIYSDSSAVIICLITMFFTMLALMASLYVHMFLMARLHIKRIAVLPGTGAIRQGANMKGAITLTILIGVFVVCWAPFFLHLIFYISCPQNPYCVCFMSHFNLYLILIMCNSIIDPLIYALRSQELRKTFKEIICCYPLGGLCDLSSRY
# Sequence of Peroxisome proliferator-activated receptor gamma/Nuclear receptor corepressor 2 (P37231 whole entry): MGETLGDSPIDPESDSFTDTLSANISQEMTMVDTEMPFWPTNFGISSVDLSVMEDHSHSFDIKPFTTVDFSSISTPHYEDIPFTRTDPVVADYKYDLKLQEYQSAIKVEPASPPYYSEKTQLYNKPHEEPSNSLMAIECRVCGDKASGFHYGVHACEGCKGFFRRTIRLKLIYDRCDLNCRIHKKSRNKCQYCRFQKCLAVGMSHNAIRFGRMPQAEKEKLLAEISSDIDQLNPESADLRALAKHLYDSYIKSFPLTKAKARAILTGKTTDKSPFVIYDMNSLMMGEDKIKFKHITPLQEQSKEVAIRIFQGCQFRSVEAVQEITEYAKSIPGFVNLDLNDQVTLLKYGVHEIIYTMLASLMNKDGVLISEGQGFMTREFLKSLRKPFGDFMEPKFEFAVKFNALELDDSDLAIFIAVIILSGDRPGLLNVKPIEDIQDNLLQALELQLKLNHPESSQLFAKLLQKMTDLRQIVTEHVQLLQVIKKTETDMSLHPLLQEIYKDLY
# Sequence of Peroxisome proliferator-activated receptor gamma/Nuclear receptor corepressor 2 (Q9Y618 whole entry): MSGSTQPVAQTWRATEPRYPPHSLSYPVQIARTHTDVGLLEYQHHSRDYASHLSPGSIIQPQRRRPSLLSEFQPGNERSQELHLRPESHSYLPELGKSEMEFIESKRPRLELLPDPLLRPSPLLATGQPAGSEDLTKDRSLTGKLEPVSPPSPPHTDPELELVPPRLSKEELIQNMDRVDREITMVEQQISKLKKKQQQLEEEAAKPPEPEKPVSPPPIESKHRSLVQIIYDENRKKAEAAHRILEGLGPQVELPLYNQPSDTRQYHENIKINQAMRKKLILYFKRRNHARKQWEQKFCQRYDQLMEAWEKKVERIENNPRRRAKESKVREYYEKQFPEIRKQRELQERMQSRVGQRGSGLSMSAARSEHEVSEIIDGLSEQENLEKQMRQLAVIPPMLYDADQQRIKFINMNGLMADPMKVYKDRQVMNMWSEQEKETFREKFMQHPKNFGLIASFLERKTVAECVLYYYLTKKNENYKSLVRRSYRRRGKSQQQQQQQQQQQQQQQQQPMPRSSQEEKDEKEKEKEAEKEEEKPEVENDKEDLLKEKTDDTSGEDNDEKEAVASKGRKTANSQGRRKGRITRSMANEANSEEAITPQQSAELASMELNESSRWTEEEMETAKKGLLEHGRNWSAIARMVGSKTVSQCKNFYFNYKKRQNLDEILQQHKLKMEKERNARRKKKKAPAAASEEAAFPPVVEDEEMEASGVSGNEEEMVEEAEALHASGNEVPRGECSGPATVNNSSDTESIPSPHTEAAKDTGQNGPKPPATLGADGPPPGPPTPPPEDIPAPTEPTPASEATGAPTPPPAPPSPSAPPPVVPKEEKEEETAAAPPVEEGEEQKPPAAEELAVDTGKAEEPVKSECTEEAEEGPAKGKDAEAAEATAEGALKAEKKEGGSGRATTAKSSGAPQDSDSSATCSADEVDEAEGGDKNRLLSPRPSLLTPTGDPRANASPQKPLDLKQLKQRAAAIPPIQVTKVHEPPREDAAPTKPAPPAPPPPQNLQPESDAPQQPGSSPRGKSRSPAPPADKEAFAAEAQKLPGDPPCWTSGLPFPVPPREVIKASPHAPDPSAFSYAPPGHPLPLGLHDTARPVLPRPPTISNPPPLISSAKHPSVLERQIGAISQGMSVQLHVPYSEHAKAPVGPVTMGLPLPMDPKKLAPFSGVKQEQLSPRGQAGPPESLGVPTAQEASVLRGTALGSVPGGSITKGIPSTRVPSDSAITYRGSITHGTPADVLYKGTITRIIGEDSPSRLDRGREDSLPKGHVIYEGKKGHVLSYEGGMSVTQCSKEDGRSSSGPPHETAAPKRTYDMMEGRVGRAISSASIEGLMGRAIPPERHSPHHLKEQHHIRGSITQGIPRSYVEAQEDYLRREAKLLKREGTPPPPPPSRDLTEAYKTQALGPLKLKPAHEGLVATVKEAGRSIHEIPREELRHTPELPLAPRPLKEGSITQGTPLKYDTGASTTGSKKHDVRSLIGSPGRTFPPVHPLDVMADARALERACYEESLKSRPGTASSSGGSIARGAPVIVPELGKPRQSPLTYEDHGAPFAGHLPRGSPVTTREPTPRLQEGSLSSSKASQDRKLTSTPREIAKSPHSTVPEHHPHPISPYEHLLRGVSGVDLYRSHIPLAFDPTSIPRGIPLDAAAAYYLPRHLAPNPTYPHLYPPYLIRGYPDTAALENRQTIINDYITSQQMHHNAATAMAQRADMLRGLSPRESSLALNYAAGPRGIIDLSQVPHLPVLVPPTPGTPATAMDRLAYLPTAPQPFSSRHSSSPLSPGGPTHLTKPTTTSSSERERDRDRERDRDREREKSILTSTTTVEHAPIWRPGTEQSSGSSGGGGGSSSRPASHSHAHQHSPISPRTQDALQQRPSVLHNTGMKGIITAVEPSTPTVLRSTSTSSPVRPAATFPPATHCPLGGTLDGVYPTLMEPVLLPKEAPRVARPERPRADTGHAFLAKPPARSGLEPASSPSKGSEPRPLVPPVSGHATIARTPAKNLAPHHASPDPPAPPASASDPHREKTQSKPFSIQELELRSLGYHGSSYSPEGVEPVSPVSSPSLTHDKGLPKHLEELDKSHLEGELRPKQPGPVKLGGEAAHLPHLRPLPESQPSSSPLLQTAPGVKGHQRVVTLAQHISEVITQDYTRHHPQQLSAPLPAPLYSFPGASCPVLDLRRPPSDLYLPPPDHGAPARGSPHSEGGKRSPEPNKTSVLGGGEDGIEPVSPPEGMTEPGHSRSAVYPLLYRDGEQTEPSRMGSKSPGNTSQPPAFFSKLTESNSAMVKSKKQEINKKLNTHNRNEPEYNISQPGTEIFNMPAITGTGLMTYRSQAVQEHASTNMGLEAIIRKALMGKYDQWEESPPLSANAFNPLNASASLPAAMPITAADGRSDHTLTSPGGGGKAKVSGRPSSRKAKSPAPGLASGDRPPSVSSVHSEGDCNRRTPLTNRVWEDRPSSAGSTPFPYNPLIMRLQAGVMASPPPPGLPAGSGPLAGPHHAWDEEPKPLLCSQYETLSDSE
# Sequence of Beta-galactosidase (Q8VNN2 whole entry): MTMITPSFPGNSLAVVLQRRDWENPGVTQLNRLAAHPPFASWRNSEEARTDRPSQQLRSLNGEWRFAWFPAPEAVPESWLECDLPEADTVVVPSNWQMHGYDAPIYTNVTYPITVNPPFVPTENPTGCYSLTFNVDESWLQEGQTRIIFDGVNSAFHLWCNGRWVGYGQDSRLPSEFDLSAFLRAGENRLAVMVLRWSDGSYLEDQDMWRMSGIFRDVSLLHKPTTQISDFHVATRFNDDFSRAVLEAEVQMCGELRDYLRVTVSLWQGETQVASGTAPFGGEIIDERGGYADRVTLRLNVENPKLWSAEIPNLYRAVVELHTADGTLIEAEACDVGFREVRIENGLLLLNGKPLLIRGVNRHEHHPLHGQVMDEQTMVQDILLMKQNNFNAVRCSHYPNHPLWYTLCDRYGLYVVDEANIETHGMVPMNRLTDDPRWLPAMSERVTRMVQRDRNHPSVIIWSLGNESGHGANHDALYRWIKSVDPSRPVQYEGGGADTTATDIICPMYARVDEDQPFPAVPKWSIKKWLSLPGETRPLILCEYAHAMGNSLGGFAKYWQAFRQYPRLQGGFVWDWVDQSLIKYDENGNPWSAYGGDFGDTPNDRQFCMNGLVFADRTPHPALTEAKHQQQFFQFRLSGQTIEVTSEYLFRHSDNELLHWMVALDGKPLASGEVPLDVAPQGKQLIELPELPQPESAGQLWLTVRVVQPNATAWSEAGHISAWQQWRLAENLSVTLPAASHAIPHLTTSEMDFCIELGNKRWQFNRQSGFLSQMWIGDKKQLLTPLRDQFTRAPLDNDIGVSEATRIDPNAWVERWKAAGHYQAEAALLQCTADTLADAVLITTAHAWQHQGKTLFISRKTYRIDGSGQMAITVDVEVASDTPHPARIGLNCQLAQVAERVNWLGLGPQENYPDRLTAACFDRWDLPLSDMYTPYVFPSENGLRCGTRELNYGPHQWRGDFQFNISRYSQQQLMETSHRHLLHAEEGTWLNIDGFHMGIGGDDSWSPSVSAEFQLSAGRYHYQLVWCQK
# Sequence of FAD-linked sulfhydryl oxidase ALR (P55789 whole entry): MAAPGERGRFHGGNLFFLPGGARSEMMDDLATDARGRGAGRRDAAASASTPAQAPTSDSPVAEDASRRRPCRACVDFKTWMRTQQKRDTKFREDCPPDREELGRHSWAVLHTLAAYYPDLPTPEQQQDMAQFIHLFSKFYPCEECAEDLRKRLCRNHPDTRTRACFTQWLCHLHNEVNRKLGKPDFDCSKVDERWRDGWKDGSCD
compound,measurement,setting,value
CN1C(=O)C2CN(CCc3ccccc3)CNC2N(C)C1=O (centres undefined),EC50,cells [1],> 29.9 µM (inactive)
same,IC50,cells [2],> 29.9 µM (inactive)
O=C(Nc1ccnc(-c2cccnc2)n1)c1ccc(Cl)cc1,IC50,[3],5.23 µM (active)
same,IC50,[4],5.27 µM (active)
Cc1ccccc1C(=O)c1cccn1CC(=O)NCCC1=CCCCC1,EC50,[5],> 50 µM (active)
CC/N=c1\scc(C)n1/N=C/c1ccsc1,EC50,H4,11.1 µM (active)
same,EC50,[6],16.6 µM (active)
same,EC50,[7],0.66 µM (active)
same,EC50,[8],1.08 µM (active)
same,EC50,[9],0.582 µM (active)
CCOc1cnn(Cc2ccccc2)c(=O)c1SCc1ccccc1,IC50,[3],15.5 µM (not active)
same,IC50,[4],> 39.8 µM (not active)
Nc1nn2cc(-c3ccccc3)nc2c2ccccc12,EC50,[5],> 50 µM (active)
Cc1cc2oc(C(=O)NCc3ccncc3)c(C)c2cc1C,EC50,[5],> 50 µM (active)
Cc1cc(C)c(NC(=O)C2CCCN2CCC(C)C)c(C)c1 (centres undefined),AC50,HeLa,> 52 µM (inactive)
CCCc1nc(SCC(=O)Nc2nc3c(s2)CCCC3)c2ccccc2n1,IC50,Melanocortin receptor 4,> 64.6 µM (inactive)
same,IC50,[10],> 64.6 µM (inactive)
O=C(Nc1ccc(F)c([N+](=O)[O-])c1)C1CC(=O)N(Cc2ccccc2)C1 (centres undefined),IC50,Melanocortin receptor 4,> 64.6 µM (inactive)
same,IC50,[10],> 64.6 µM (inactive)
CSc1cccc(NC(=O)c2cc(S(=O)(=O)N3CCCCC3)c[nH]2)c1,IC50,[3],3.45 µM (active)
same,IC50,[4],4.12 µM (active)
Cc1cccc(NC(=O)CSCC(=O)N(C)Cc2ccc(Cl)c(Cl)c2)c1,IC50,[11],> 100 µM (inactive)
CN(C)C1C(=O)C(C(N)=O)=C(O)C2(O)C(O)=C3C(=O)c4c(O)cccc4C(C)(O)C3CC12 (centres undefined),EC50,[5],> 50 µM (active)
Cc1nn(-c2ccccc2)c(O)c1/C=N/N1C(=O)c2ccc3c4c(ccc(c24)C1=O)CC3,IC50,Beta-galactosidase,> 66.6 µM (inactive)
CCS(=O)(=O)Nc1c(C(=O)O)[nH]c2ccccc12,AC50,[12],0.6 µM (active)
same,AC50,Trypsin,> 100 µM (inactive)
CCn1c(C)cc(/C=C2\NC(=O)N(Cc3ccc(Cl)cc3)C2=O)c1C,IC50,[13],3.37 µM (active)
same,EC50,[14],> 30 µM (not active)
same,AC50,Cytochrome P450 2C19,1.78 µM (inconclusive)
same,EC50,[15],0.178 µM (active)
CN(C)CCCN1C(=O)C(O)=C(C(=O)c2cc3ccccc3o2)C1c1ccccn1 (centres undefined),IC50,Melanocortin receptor 4,> 64.6 µM (inactive)
same,IC50,[10],> 64.6 µM (inactive)
COc1cc(OC)c2ccc(=O)oc2c1C(CCN1CCCC(C)C1)c1ccc2c(c1)OCO2 (centres undefined),CC50,[16],> 40 µM (active)
Cn1c(=O)c(=O)n(C)c2cc(S(=O)(=O)N3CCc4ccccc43)ccc21,EC50,[5],> 50 µM (active)
COc1ccc2oc(C(=O)Nc3ccc(S(=O)(=O)N(C)C4CCN(C)CC4)cc3)c(C)c2c1,EC50,[14],9.46 µM (active)
same,AC50,[17],13 µM (active)
same,EC50,[15],0.17 µM (active)
Cc1ccc(OCC(=O)Nc2ccc3c(c2)OCO3)c(C)c1,EC50,H4,31.7 µM (active)
same,EC50,[6],< 0.1 µM (active)
same,EC50,[7],> 12 µM (not active)
same,EC50,[8],0.914 µM (active)
same,EC50,[9],1.1 µM (active)
Cc1cccc(C)c1NC(=O)C(CCc1ccccc1)N1CCC(c2ccccc2)CC1 (centres undefined),AC50,HeLa,> 52 µM (inactive)
CN(C)c1c([N+](=O)[O-])cc(N2C(=O)C=CC2=O)cc1[N+](=O)[O-],IC50,Genome polyprotein,11.1 µM (active)
same,IC50,Beta-galactosidase,> 66.6 µM (inactive)
O=C(CSc1nccc(O)n1)N1CCc2ccccc2C1,EC50,cells [1],> 29.9 µM (inactive)
same,IC50,cells [2],> 29.9 µM (inactive)
C[C@@H]1CN([C@@H](C)CO)C(=O)CCCn2nncc2CO[C@@H]1CN(C)Cc1cccc(C(F)(F)F)c1,AC50,HeLa,> 52 µM (inactive)
CSc1nc(-c2ccc(Cl)cc2)c[nH]1,AC50,[12],2.02 µM (active)
same,EC50,H4,< 0.1 µM (active)
same,EC50,[6],0.284 µM (active)
same,EC50,[7],2.01 µM (active)
same,EC50,[8],0.386 µM (active)
same,EC50,[9],0.276 µM (active)
